From US8053553B2, “Targeting host proteinases as a therapeutic strategy against viral and bacterial pathogens” (Socpra Sciences Sante Et Humaines, priority 2007, dated 2011)
Non-standard residues stand in square brackets, D forms with d. Residues, ends and D or L forms follow the SMILES beside them. No end group written: not given here. βAla = NCCC(=O)O

Assays:
[1] = system: Pseudomonas exotoxin A (PEx); test: Lethal action of Pseudomonas exotoxin A in mice; type: in vivo, C57/BL6 mice
Description: A similar set of experiments was carried out with an unrelated toxin, Pseudomonas exotoxin A. Consistent with the earlier data (Chiron, M. F., et al. 1997), Pseudomonas exotoxin A (PEx) was resistant to PC cleavage at pH 7.5 but following unfolding at pH 5.5 PEx (66 kDa) was readily processed by furin, PC4 and PC5/6 to produce the 28 kDa N-terminal fragment and the toxic 37 kDa Cterminal fragment (FIG. 3A). C57/BL6 mice (5 mice/group) received one intramuscular injection of PEx (500 ng/animal; 2xLD50; Fogle, M. R., et al. 2002) and one injection of the […] (SEQ ID NO:212) peptide (12.5 mg/kg i.p.) either 24 h prior to toxin injection or simultaneously with toxin. Another group of mice, after receiving one injection of the peptide 24 h prior to toxin injection, continued to receive daily injections of the peptide for the remainder of the experiment.
C57/BL6 mice (5 mice/group) received one intramuscular injection of PEx (500 ng/animal; 2xLD50; Fogle, M. R., et al. 2002). Mice received one injection of the […] (SEQ ID NO:212) peptide (12.5 mg/kg i.p.) either 24 h prior to toxin injection or simultaneously with toxin. Additional group of mice after receiving one injection of the peptide 24 h prior to toxin injection continued to receive daily injections of the peptide for the remainder of the experiment (FIG. 3B).

[2] = system: B. anthracis Sterne spores; parameters: species or system A/J mice; details: mouse, in vivo
PACE4 = test: Ki, μM | PACE4
PC4 = test: Ki, μM | PC4
PC5/6 = test: Ki, μM | PC5/6
PC7 = test: Ki, μM | PC7

C[C@H](NC(=O)[C@H](CCCNC(=N)N)NC(=O)[C@@H]1CCCN1C(=O)[C@@H](N)[C@@H](C)O)C(=O)N[C@@H](CCCNC(=N)N)C(=O)N[C@@H](CCCNC(=N)N)C(=O)N[C@@H](CCCNC(=N)N)C(=O)N[C@@H](CCCCN)C(=O)N[C@@H](CCCCN)C(=O)N[C@@H](CCCNC(=N)N)C(=O)N[C@H](C(N)=O)[C@@H](C)O (H-TPRARRRKKRT-NH2)
survival ([1]; C57/BL6 mice, PEx 500 ng/animal (2xLD50), peptide 12.5 mg/kg i.p. 24 h prior to toxin then daily injections): 60% | protection of mice from the toxic effect of PEx ([1]; peptide 12.5 mg/kg i.p. (FIG. 3)): protects mice from the toxic effect of Pseudomonas PEx | protection from LF-induced cytotoxicity (RAW 264.7 cells): protected cells from LF-induced cytotoxicity | infected mice protected from disease [2]: 40%

O=C(O)c1cn(C2CC2)c2cc(N3CCNCC3)c(F)cc2c1=O [Cipro, reference compound]
infected mice protected from disease [2]: 40% | protection of A/J mice from anthrax [2]: protect A/J mice from anthrax

β-Ala-TPRARRRKKRT-amide ([βAla]TPRARRRKKRT-NH2; N-terminus assumed; SMILES C[C@H](NC(=O)[C@H](CCCNC(=N)N)NC(=O)[C@@H]1CCCN1C(=O)[C@@H](NC(=O)CCN)[C@@H](C)O)C(=O)N[C@@H](CCCNC(=N)N)C(=O)N[C@@H](CCCNC(=N)N)C(=O)N[C@@H](CCCNC(=N)N)C(=O)N[C@@H](CCCCN)C(=O)N[C@@H](CCCCN)C(=O)N[C@@H](CCCNC(=N)N)C(=O)N[C@H](C(N)=O)[C@@H](C)O)
protection of A/J mice from anthrax [2]: protect A/J mice from anthrax

TPRARRRKKRI
Ki (PACE4): 0.026 µM | Ki (PC4): 0.562 µM | Ki (PC5/6): 0.492 µM | Ki (PC7): 0.135 µM

TPQRARRRKKRW
Ki (PACE4): 0.192 µM | Ki (PC4): 0.952 µM | Ki (PC5/6): 0.433 µM | Ki (PC7): 0.172 µM
